Data on one compound can be found in patent US9145351B2, “Azole derivatives, methods for producing the same, intermediate thereof, agro-horticultural agents” (KUREHA CORPORATION, priority 2009, dated 2015).

The experiment deals with Puccinia recondita. Nature of the experiment: Efficacy test against wheat brown rust, 2 mg/L (Experimental Example 8). Format: in vivo. More on the design: key: 0: No onset; 0.5: Less than 1%; 1% or higher and less than 5%; 2: 5% or higher and less than 10%; 10% or higher and less than 30%; 4: 30% or higher and less than 50%; 50% or higher. Particulars: sprayed at 1,000 L/ha, concentration printed 0.02 mg/L, 9 to 14 days after inoculation. How it is done:
Onto a wheat plant (variety: […] The sprayed leaves were air-dried, and inoculated with spore suspension of Puccinia recondita (adjusted at 200 spores/vision, […] was added at 60 ppm) by spraying, and kept at 25 degrees C. and a high humidity for 48 hours. Thereafter, the plant was kept in a greenhouse. Nine to 14 days after inoculation, the wheat brown rust lesion degree was investigated, and the protective value was calculated by the following equation. Protective value (%)=(1-lesion degree in sprayed plot/lesion degree in unsprayed plot)×100

Structures are written as SMILES.

Regarding `C[C@]1(CCl)CC[C@@H](Cc2ccc(F)cc2)[C@]1(O)Cn1cncn1` (racemic) [Compound I-77, (1RS,2SR,5SR)-2-chloromethyl-5-(4-fluorobenzyl)-2-methyl-1-(1H-1,2,4-triazol-1-ylmethyl)cyclopentanol], the “degree (wheat brown rust lesion degree)” value worked out at 0.
